In publication PMC10709440, “High-throughput ligand profile characterization in novel cell lines expressing seven heterologous insect olfactory receptors for the detection of volatile plant biomarkers” (Scientific Reports, 2023):

Assays:
Drosophila OR71a = molecular target: T1, Drosophila OR71a (Drosophila melanogaster, UniProt Q9VUK5); test: Calcium ion fluorescence (GCaMP6) assay, OR71a stable HEK293 cell line; assay type: cell-based; settings: for OR71a response (VUAA1-normalized) at 1 μM / OR71a response (VUAA1-normalized) at 10 μM / OR71a response (VUAA1-normalized) at 100 μM / Average response: OR71a cell line; for OR71a response (VUAA1-normalized) at 1 μM: VOC concentration 1 μM; for OR71a response (VUAA1-normalized) at 10 μM: VOC concentration 10 μM; for OR71a response (VUAA1-normalized) at 100 μM: VOC concentration 100 μM; for Average response: VUAA1-normalized response, mean of biological replicates; for DF norm AVERAGE OR71a: threshold 0.05, below shown as 0
T1 construct: expressed in transfected cells
T1 sequence (Q9VUK5 1-378): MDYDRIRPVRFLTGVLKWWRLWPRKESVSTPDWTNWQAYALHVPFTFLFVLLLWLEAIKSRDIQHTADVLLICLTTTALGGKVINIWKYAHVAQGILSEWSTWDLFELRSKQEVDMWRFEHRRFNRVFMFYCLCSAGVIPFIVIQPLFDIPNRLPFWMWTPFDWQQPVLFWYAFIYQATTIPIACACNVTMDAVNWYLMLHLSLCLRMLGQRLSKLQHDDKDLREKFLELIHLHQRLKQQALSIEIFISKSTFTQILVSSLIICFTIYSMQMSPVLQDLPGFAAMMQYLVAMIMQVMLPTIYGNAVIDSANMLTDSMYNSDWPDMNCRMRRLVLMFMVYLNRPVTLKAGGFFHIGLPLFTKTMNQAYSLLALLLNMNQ
T1 sequence (Q9VNB5 1-486 partner): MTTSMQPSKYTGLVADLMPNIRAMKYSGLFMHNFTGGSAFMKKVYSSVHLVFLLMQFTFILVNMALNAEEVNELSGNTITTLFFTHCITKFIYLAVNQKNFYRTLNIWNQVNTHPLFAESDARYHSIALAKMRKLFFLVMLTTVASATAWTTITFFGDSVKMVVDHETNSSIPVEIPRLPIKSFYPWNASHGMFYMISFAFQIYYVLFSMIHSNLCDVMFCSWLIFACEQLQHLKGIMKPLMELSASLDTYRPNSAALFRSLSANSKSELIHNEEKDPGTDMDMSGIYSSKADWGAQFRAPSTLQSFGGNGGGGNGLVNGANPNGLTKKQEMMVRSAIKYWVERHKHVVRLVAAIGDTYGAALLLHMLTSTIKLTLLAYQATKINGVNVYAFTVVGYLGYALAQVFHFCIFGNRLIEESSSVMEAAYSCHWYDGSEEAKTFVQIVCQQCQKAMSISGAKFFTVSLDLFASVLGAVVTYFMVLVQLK
Outline: (§1)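 HEK293 lines stably expressing each Drosophila OR with GCaMP6, doxycycline-induced (1 μg/mL) 48 or 72 h. Fluorescence recorded 5 s baseline then 30 s after VOC injection at pH 7.3; ΔF=(FMAX−F0)/F0, normalized to 50 µM VUAA1 response per line, triplicate wells averaged; concentration series 0.01–100 μM.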

Drosophila OR47a = molecular target: T2, Drosophila OR47a (Drosophila melanogaster, UniProt P81921); test: Calcium ion fluorescence (GCaMP6) assay, OR47a stable HEK293 cell line; assay type: cell-based; settings: for OR47a response (VUAA1-normalized) at 1 μM / OR47a response (VUAA1-normalized) at 10 μM / OR47a response (VUAA1-normalized) at 100 μM / Average response: OR47a cell line; for OR47a response (VUAA1-normalized) at 1 μM: VOC concentration 1 μM; for OR47a response (VUAA1-normalized) at 10 μM: VOC concentration 10 μM; for OR47a response (VUAA1-normalized) at 100 μM: VOC concentration 100 μM; for Average response: mean of biological replicates; for DF norm AVERAGE OR47a: threshold 0.05, below shown as 0
T2 construct: expressed in transfected cells
T2 sequence (P81921 1-385): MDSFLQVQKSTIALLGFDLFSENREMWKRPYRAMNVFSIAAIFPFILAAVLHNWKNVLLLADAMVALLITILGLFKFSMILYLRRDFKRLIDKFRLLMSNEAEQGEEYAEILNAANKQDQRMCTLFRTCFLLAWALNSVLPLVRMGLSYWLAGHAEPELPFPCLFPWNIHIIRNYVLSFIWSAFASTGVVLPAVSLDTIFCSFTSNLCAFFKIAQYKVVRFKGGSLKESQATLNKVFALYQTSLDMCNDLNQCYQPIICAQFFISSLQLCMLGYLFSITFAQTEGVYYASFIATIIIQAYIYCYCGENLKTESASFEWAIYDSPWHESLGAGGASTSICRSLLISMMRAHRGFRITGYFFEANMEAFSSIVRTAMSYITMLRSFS
T2 sequence (Q9VNB5 1-486 partner): T1 sequence (Q9VNB5 1-486 partner)
Outline: as §1

[1] = ligand concentration 1 (unit not given)
[2] = ligand concentration 10 (unit not given)
[3] = ligand concentration 100 (unit not given)
[4] = HEK293, read-out: OR47a Average response (VUAA1-normalized)

| SMILES | OR71a response (VUAA1-normalized) at 1 μM (Drosophila OR71a) | OR71a response (VUAA1-normalized) at 10 μM (Drosophila OR71a) | OR71a response (VUAA1-normalized) at 100 μM (Drosophila OR71a) | Average response (Drosophila OR71a; cc. 1 µM) | Average response (Drosophila OR71a; cc. 10 µM) | Average response (Drosophila OR71a; cc. 100 µM) | DF norm AVERAGE OR71a (Drosophila OR71a; [1]) | DF norm AVERAGE OR71a (Drosophila OR71a; [2]) | DF norm AVERAGE OR71a (Drosophila OR71a; [3]) | OR47a response (VUAA1-normalized) at 1 μM (Drosophila OR47a) | OR47a response (VUAA1-normalized) at 10 μM (Drosophila OR47a) | OR47a response (VUAA1-normalized) at 100 μM (Drosophila OR47a) | Average response (Drosophila OR47a; odorant cc. 1 µM) | Average response (Drosophila OR47a; odorant cc. 10 µM) | Average response (Drosophila OR47a; odorant cc. 100 µM) | DF norm AVERAGE OR47a (Drosophila OR47a; [1]) | DF norm AVERAGE OR47a (Drosophila OR47a; [2]) | DF norm AVERAGE OR47a (Drosophila OR47a; [3]) | also measured |
| --- | --- | --- | --- | --- | --- | --- | --- | --- | --- | --- | --- | --- | --- | --- | --- | --- | --- | --- | --- |
| OCCc1ccccc1 [phenethyl alcohol] | 0.09 | 0.00 | 0.00 | 0.09 | 0.03 | 0.0218 | 0.08619 | 0 | 0 | 0.0564 | 0.0644 | 0.057 | 0.0564 | 0.0644 | 0.057 | 0.05643 | 0.06438 | 0.05701 | – |
| CCCOC(C)=O [propyl acetate] | 0.00 | 0.00 | 0.00 | 0.0434 | 0.025 | 0.00 | 0 | 0 | 0 | 0.00 | 0.09 | 0.33 | 0.00 | 0.09 | 0.33 | 0 | 0.0896 | 0.3345 | activation at 1 µM (Drosophila OR47a; [4]): 0%; activation at 10 µM (Drosophila OR47a; [4]): 9%; activation at 100 µM (Drosophila OR47a; [4]): 33% |
